Data on 3 molecules can be found in patent US20080009418A1, “Selective Inhibitors” (Alchemia LTD., priority 2004, published 2008).

In assay [1] the target is T1, Human melanin-concentrating hormone (MCH1) (Homo sapiens, UniProt Q99705).
T1 construct: purchased Perkin Elmer Biosignal
The assay can be described thus: Radioligand binding, human melanin-concentrating hormone MCH1 membranes, FlashPlate, [125I]-S36057. The settings on record: compound at 10 μM; for A6: inhibition of radioligand binding: [125I]-S36057, FlashPlate. A digest of the protocol:
(§1)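 Cloned human receptor membranes were coated onto FlashPlate wells and incubated with radioligand and compound (added from a 0.5 mM DMSO daughter plate) for 1 hour at room temperature in the dark. Scintillation counting gave percent inhibition, with DMSO defining total and reference ligand defining non-specific binding.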

The target in a further assay is T2, Mouse urotensin (mUR2) (Mus musculus, UniProt Q8VIH9).
T2 construct: purchased Perkin Elmer Biosignal
T2 sequence (Q8VIH9 1-385): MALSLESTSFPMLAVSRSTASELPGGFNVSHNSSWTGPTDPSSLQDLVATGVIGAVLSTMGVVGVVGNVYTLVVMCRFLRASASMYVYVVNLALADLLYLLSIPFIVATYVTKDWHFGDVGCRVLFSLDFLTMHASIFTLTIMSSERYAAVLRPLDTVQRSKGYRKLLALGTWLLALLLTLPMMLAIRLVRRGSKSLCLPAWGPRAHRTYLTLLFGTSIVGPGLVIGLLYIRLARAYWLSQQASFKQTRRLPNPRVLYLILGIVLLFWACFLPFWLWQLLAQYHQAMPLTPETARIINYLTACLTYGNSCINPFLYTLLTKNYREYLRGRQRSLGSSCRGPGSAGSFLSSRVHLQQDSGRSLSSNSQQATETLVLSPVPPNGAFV
In words: Radioligand binding, mouse urotensin mUR2 membranes, FlashPlate, [125I]-Urotensin II. The settings on record: compound at 10 μM, [125I]-Urotensin II; for A11: inhibition of radioligand binding: FlashPlate. The method in brief: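 Cloned mouse urotensin (mUR2) receptor membranes from Perkin Elmer Biosignal were immobilized in FlashPlate microplates using a proprietary coating. Each well got 19.5 μl buffer, then 0.5 μl of DMSO, reference ligand, or compound. Adding 5 μl of [125I]-Urotensin II, diluted to 5× final concentration in binding buffer, started binding. Plates were sealed with TopSeal-A and incubated 1 hour at room temperature in the dark. Wells were counted for 30 seconds each on a TopCount after a 60-second delay, and percentage inhibition was calculated.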

For another assay, the target named is T3, Human Melanocortin (MC3) (Homo sapiens, UniProt P41968).
T3 construct: purchased Perkin Elmer Biosignal
The assay can be described thus: Radioligand binding, human melanocortin MC3 membranes, FlashPlate, [125I]-NDP-αMSH. The settings on record: compound at 10 μM, [125I]-NDP-αMSH; for A3: inhibition of radioligand binding: FlashPlate. The method in brief:
as §1

A further assay addresses T4, Human δ-opioid (DOP) (Homo sapiens, UniProt P41143).
T4 construct: purchased Perkin Elmer Biosignal
In words: Radioligand binding, human δ-opioid (DOP) membranes, FlashPlate, [3H]-Bremazocine. The settings on record: compound at 10 μM, [3H]-Bremazocine; for A1: inhibition of radioligand binding: FlashPlate. The method in brief:
as §1

In the next assay the target is T5, Human μ-opioid (MOP) (Homo sapiens, UniProt P35372).
T5 construct: purchased Perkin Elmer Biosignal
In words: Radioligand binding, human μ-opioid (MOP) membranes, FlashPlate, [3H]-Naloxone. The settings on record: compound at 10 μM, [3H]-Naloxone; for A7: inhibition of radioligand binding: FlashPlate. The method in brief:
as §1

The target of the next assay is T6, Human κ-Opioid (KOP) (Homo sapiens, UniProt P41145).
T6 construct: purchased Perkin Elmer Biosignal
In words: Radioligand binding, human κ-opioid (KOP) membranes, filtration, [3H]-Diprenorphine. The settings on record: compound at 10 μM, [3H]-Diprenorphine; for A2: inhibition of radioligand binding: filtration. The method in brief:
(§2)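 Percent inhibition of radioligand binding measured on recombinant human membranes: NK1 with [125I]-Substance P, KOP with [3H]-Diprenorphine. Incubation 1 h at room temperature, then harvest onto 0.3% PEI-soaked filters, cold Tris-HCl pH 7.4 washes and scintillation counting; non-specific binding from reference ligand wells.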

The next assay deals with T7, Human melanocortin (MC5) (Homo sapiens, UniProt P33032).
T7 construct: purchased Perkin Elmer Biosignal
The assay can be described thus: Radioligand binding, human melanocortin MC5 membranes, FlashPlate, [125I]-NDP-αMSH. The settings on record: compound at 10 μM, [125I]-NDP-αMSH; for A5: inhibition of radioligand binding: FlashPlate. The method in brief:
as §1

In the next assay the target is T8, Human neurokinin (NK1) (Homo sapiens, UniProt P25103).
T8 construct: purchased Perkin Elmer Biosignal
In words: Radioligand binding, human neurokinin NK1 membranes, filtration, [125I]-Substance P. To be noted: compound at 10 μM, [125I]-Substance P; for A8: inhibition of radioligand binding: filtration. The method in brief: as §2

Assay [2] addresses T9, Human neuropeptide Y (NPY-Y1) (Homo sapiens, UniProt P25929).
T9 construct: purchased Perkin Elmer Biosignal
T9 sequence (P25929 1-384): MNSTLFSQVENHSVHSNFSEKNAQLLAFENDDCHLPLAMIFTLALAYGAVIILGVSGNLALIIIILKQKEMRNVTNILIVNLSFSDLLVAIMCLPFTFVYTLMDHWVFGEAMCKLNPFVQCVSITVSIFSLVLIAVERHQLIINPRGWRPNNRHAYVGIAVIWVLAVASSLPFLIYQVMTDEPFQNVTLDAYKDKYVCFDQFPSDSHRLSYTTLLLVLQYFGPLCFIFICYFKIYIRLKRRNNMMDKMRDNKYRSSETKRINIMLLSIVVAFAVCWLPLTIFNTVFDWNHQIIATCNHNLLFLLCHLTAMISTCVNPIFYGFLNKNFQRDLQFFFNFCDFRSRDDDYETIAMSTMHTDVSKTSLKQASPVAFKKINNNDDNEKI
In words: Radioligand binding, human neuropeptide Y NPY-Y1 membranes, FlashPlate, [125I]-PYY. The settings on record: compound at 10 μM, [125I]-PYY; for A9: inhibition of radioligand binding: FlashPlate. A digest of the protocol:
as §1

The target of another assay is T10, Human opioid (ORL1) (Homo sapiens, UniProt P41146).
T10 construct: purchased Perkin Elmer Biosignal
The assay can be described thus: Radioligand binding, human opioid ORL1 membranes, FlashPlate, [125I]-Nociceptin. To be noted: compound at 10 μM, [125I]-Nociceptin; for A10: inhibition of radioligand binding: FlashPlate. A digest of the protocol:
as §1

The next assay addresses T11, Human Melanocortin (MC4) (Homo sapiens, UniProt P32245).
T11 construct: purchased Perkin Elmer Biosignal
The assay can be described thus: Radioligand binding, human melanocortin MC4 membranes, FlashPlate, [125I]-NDP-αMSH. To be noted: compound at 10 μM, [125I]-NDP-αMSH; for A4: inhibition of radioligand binding: FlashPlate. The method in brief: as §1

T8 sequence (P25103 whole entry): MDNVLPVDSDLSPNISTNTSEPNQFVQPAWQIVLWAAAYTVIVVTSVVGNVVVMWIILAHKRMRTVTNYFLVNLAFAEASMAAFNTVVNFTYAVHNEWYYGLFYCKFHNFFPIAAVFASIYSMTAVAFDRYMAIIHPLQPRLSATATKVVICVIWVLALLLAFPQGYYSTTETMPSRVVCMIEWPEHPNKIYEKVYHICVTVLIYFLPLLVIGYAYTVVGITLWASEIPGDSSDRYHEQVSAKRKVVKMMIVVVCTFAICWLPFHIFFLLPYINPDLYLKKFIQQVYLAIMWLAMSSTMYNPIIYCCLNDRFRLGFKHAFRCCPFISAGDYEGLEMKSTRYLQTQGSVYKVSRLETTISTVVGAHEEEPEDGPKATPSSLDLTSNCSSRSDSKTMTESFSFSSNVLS
T7 sequence (P33032 whole entry): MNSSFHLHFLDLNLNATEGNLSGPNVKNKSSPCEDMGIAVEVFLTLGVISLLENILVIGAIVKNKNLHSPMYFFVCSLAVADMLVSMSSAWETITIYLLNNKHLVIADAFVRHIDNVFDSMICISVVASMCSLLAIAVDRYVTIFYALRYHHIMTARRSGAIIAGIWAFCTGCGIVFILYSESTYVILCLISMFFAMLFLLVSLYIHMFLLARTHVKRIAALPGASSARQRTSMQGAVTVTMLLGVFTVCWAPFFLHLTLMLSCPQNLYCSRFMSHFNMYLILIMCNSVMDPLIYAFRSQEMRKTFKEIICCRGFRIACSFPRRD
T11 sequence (P32245 whole entry): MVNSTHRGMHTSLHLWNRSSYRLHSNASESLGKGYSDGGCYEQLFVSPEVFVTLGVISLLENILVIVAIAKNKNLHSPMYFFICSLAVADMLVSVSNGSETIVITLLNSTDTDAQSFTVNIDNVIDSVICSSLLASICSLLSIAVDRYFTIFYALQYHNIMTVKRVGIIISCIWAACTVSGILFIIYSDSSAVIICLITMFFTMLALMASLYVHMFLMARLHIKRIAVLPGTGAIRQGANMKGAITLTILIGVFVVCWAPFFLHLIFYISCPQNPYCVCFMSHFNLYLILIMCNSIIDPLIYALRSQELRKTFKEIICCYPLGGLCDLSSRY
T3 sequence (P41968 whole entry): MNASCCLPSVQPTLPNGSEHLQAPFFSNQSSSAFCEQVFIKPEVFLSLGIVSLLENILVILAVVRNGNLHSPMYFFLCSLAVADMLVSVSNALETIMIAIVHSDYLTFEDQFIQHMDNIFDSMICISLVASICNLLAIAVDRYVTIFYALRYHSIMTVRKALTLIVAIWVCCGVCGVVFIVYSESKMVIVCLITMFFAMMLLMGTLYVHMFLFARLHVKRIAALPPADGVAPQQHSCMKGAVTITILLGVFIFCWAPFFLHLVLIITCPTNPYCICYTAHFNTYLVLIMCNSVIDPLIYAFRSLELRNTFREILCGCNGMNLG
T10 sequence (P41146 whole entry): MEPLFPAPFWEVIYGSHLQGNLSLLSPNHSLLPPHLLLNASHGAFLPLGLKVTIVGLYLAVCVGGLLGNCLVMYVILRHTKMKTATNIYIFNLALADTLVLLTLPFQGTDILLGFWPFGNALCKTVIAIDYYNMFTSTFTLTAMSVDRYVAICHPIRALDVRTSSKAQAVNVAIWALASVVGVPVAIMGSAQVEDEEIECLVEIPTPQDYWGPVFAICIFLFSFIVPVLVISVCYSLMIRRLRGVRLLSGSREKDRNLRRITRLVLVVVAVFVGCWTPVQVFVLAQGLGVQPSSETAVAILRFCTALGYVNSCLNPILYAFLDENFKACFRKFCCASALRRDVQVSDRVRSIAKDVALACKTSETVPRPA
T1 sequence (Q99705 whole entry): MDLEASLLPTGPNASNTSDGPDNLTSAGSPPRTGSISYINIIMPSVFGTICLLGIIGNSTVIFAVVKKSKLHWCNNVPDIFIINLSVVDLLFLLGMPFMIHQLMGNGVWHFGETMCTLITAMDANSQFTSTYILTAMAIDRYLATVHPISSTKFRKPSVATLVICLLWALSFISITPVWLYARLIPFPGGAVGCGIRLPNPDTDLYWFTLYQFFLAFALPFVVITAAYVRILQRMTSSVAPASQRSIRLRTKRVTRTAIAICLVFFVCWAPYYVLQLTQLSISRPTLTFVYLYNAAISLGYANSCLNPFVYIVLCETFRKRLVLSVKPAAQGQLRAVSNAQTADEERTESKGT
T4 sequence (P41143 whole entry): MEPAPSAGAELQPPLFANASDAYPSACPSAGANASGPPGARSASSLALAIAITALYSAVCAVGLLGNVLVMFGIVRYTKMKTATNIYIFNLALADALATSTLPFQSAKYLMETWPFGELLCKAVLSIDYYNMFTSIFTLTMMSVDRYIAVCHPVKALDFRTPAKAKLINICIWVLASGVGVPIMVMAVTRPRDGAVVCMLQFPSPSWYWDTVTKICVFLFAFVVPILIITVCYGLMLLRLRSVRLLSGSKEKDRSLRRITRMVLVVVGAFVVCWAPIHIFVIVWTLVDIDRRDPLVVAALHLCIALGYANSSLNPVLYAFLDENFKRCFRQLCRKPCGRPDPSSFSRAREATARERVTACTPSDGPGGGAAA
T6 sequence (P41145 whole entry): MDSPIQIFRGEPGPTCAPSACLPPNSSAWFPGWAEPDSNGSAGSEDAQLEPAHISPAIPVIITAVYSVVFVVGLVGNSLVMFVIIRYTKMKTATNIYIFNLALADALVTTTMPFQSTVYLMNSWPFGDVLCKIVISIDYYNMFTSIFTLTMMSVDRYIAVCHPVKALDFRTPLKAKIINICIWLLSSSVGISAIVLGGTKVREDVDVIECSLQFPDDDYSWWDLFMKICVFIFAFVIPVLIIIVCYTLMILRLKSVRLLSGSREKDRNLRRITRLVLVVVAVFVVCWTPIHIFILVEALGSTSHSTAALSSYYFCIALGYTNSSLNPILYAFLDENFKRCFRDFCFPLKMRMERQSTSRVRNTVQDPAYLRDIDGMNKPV
T5 sequence (P35372 whole entry): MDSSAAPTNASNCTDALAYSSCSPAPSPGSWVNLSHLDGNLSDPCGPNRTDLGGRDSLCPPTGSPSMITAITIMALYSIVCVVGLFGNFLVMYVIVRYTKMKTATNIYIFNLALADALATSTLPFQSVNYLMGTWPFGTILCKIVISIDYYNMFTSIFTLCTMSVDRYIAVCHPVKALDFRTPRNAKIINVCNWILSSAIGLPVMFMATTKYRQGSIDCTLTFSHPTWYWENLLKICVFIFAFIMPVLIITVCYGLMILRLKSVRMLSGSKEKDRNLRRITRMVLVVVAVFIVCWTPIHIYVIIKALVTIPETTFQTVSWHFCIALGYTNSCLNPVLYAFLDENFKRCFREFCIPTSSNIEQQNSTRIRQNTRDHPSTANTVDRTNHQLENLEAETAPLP

Turning to `COCC1OC(OCc2ccccc2)C(NC(=O)CCCNC(=N)N)C(OCc2ccc(-c3ccccc3)cc2)C1O` (stereo not drawn) [compound 187], the “A6 radioligand binding, percentage inhibition” value in assay [1] ([125I]-S36057) is reported as “+ (“+” indicates greater than 50% inhibition at 10 μM)”. Further, on Mouse urotensin (mUR2), the “A11 radioligand binding, percentage inhibition” value is given as “− (“−” indicates less than 50% inhibition at 10 μM)”. For the same molecule, on Human Melanocortin (MC3), the “A3 radioligand binding, percentage inhibition” value is on record as “− (“−” indicates less than 50% inhibition at 10 μM)”. For the same molecule, at Human δ-opioid (DOP), the “A1 radioligand binding, percentage inhibition” value is recorded as “− (“−” indicates less than 50% inhibition at 10 μM)”. For the same molecule, the “A7 radioligand binding, percentage inhibition” value on Human μ-opioid (MOP) was “− (“−” indicates less than 50% inhibition at 10 μM)”. The “A2 radioligand binding, percentage inhibition” value at Human κ-Opioid (KOP) was “− (“−” indicates less than 50% inhibition at 10 μM)”. Besides, the “A5 radioligand binding, percentage inhibition” value at Human melanocortin (MC5) is given as “+ (“+” indicates greater than 50% inhibition at 10 μM)”. Besides, the “A8 radioligand binding, percentage inhibition” value at Human neurokinin (NK1) is “+ (“+” indicates greater than 50% inhibition at 10 μM)”. In addition, the “A9 radioligand binding, percentage inhibition” value in assay [2] is listed as “− (“−” indicates less than 50% inhibition at 10 μM)”. Further, on Human opioid (ORL1), the “A10 radioligand binding, percentage inhibition” value is on record as “− (“−” indicates less than 50% inhibition at 10 μM)”. The “A4 radioligand binding, percentage inhibition” value on Human Melanocortin (MC4) is “+ (“+” indicates greater than 50% inhibition at 10 μM)”.

With `COCC1OC(OCc2ccccc2)C(NC(=O)CN)C(OCc2ccc3ccccc3c2)C1O` (stereo not drawn) [compound 188], the “A6: inhibition of radioligand binding” value in assay [1] is “− (“−” indicates less than 50% inhibition at 10 μM)”. Besides, the “A11: inhibition of radioligand binding” value on Mouse urotensin (mUR2) was “− (“−” indicates less than 50% inhibition at 10 μM)”. Moreover, the “A3: inhibition of radioligand binding” value on Human Melanocortin (MC3) was “− (“−” indicates less than 50% inhibition at 10 μM)”. Besides, at Human δ-opioid (DOP), the “A1: inhibition of radioligand binding” value is recorded as “− (“−” indicates less than 50% inhibition at 10 μM)”. On Human μ-opioid (MOP), the “A7: inhibition of radioligand binding” value was “− (“−” indicates less than 50% inhibition at 10 μM)”. For the same molecule, at Human κ-Opioid (KOP), the “A2: inhibition of radioligand binding” value was “− (“−” indicates less than 50% inhibition at 10 μM)”. Also, on Human melanocortin (MC5), the “A5: inhibition of radioligand binding” value is reported as “− (“−” indicates less than 50% inhibition at 10 μM)”. Besides, the “A8: inhibition of radioligand binding” value on Human neurokinin (NK1) is on record as “+ (“+” indicates greater than 50% inhibition at 10 μM)”. Further, in assay [2], the “A9: inhibition of radioligand binding” value is listed as “− (“−” indicates less than 50% inhibition at 10 μM)”. Further, at Human opioid (ORL1), the “A10: inhibition of radioligand binding” value is given as “− (“−” indicates less than 50% inhibition at 10 μM)”. For the same molecule, at Human Melanocortin (MC4), the “A4: inhibition of radioligand binding” value is listed as “− (“−” indicates less than 50% inhibition at 10 μM)”.

For the molecule `COCC1OC(OCc2ccccc2)C(NC(=O)CNC(=N)N)C(OCc2ccc3ccccc3c2)C1O` (stereo not drawn) [compound 189], the “A6: inhibition of radioligand binding” value in [1] is “+ (“+” indicates greater than 50% inhibition at 10 μM)”. In addition, on Mouse urotensin (mUR2), the “A11: inhibition of radioligand binding” value is reported as “− (“−” indicates less than 50% inhibition at 10 μM)”. At Human Melanocortin (MC3), the “A3: inhibition of radioligand binding” value is “+ (“+” indicates greater than 50% inhibition at 10 μM)”. The “A1: inhibition of radioligand binding” value on Human δ-opioid (DOP) is reported as “− (“−” indicates less than 50% inhibition at 10 μM)”. Besides, the “A7: inhibition of radioligand binding” value at Human μ-opioid (MOP) was “− (“−” indicates less than 50% inhibition at 10 μM)”. For the same molecule, on Human κ-Opioid (KOP), the “A2: inhibition of radioligand binding” value is reported as “− (“−” indicates less than 50% inhibition at 10 μM)”. The “A5: inhibition of radioligand binding” value on Human melanocortin (MC5) is listed as “+ (“+” indicates greater than 50% inhibition at 10 μM)”. For the same molecule, the “A8: inhibition of radioligand binding” value at Human neurokinin (NK1) is “+ (“+” indicates greater than 50% inhibition at 10 μM)”. Besides, the “A9: inhibition of radioligand binding” value in assay [2] was “− (“−” indicates less than 50% inhibition at 10 μM)”. For the same molecule, the “A10: inhibition of radioligand binding” value at Human opioid (ORL1) is “− (“−” indicates less than 50% inhibition at 10 μM)”. Moreover, on Human Melanocortin (MC4), the “A4: inhibition of radioligand binding” value is recorded as “+ (“+” indicates greater than 50% inhibition at 10 μM)”.
